Laboratory results from patent publication US12421211B2, “Heterocyclic compounds” (Hoffmann-La Roche Inc., priority 2021, dated 2025).
Structures can show the parent of a compound that is named as a salt.

tested on: Acinetobacter baumannii ATCC17961; assay: Antimicrobial susceptibility testing: 90% growth inhibitory concentration (IC90) determination; format: cell-based; settings: 90% growth inhibitory concentration, Acinetobacter baumannii ATCC17961, Iso-Sensitest broth, OD 600 nm over 16 h; read-out: ATCC 17961 IC90
Procedure, shortened: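 A. baumannii ATCC17961 at ~5×10^5 CFU/ml in Iso-Sensitest broth exposed to 10-point twofold dilutions (e.g. 50–0.097 μM final), 35±2° C. OD600 read every 20 minutes over 16h; IC50 and IC90 derived from inhibition during logarithmic growth.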

**Q.** With Cc1nn(CC(=O)Nc2ccc(F)nn2)cc1-c1ccc(-c2cnc(C(=O)Nc3ccc(C(=O)N4CCN(C(=O)C5CC[N+](CC(=O)O)(CC6CNC6)CC5)CC4)c(Cl)c3)n2C)c(F)c1F (stereo not drawn) [Example L6, cis 2-[1-(azetidin-3-ylmethyl)-4-[4-[2-chloro-4-[[5-[2,3-difluoro-4-[1-[2-[(6-fluoropyridazin-3-yl)aminol-2-oxo-ethyl]-3-methyl-pyrazol-4-yl]phenyl]-methyl-imidazole-2-carbonyl]amino]benzoyl]piperazine-1-carbonyl]piperidin-1-ium-1-yl]acetic acid; formate] as the compound, how does the IC90 read?
**A.** 197 nM

**Q.** Cc1nn(CCOC(F)F)cc1-c1ccc(-c2cnc(C(=O)Nc3ccc(C(=O)N4CCN(C(=O)C5CC[N+](CC(=O)[O-])(CC6CNC6)CC5)CC4)c(Cl)c3)n2C)c(F)c1F (stereo not drawn) [Example N4, cis 2-[1-(azetidin-3-ylmethyl)-4-[4-[2-chloro-4-[[5-[4-[1-[2-(difluoromethoxy)ethyl]-3-methyl-pyrazol-4-yl]-2,3-difluoro-phenyl]-1-methyl-imidazole-2-carbonyl]amino]benzoyl]piperazine-1-carbonyl]piperidin-1-ium-1-yl]acetate] was tested. Which IC90 did it give?
**A.** 108 nM

same assay, conditions: Acinetobacter baumannii, ATCC17961, 16 h, 90% growth inhibitory concentration, Acinetobacter baumannii ATCC17961, Iso-Sensitest broth, OD 600 nm over 16 h; read-out: ATCC 17961 IC90

**Q.** Which IC90 does the source give for Cc1nn(CCOC(F)F)c(C)c1-c1ccc(-c2cnc(C(=O)Nc3ccc(C(=O)N4CCN(C(=O)C5C[C@@H](O)C[N+]5(C)C)CC4)c(Cl)c3)n2C)c(F)c1F (stereo partly drawn) [Example K2, N-[3-chloro-4-[4-[(4R)-4-hydroxy-1,1-dimethyl-pyrrolidin-1-ium-2-carbonyl]piperazine-1-carbonyl]phenyl]-5-[4-[1-2-(difluoromethoxy)ethyl]-3,5-dimethyl-pyrazol-4-yl]-2,3-difluoro-phenyl]-1-methyl-imidazole-2-carboxamide; formate] here?
**A.** 360 nM

**Q.** With Cc1nn(CC2CC2(F)F)c(C)c1-c1ccc(-c2cnc(C(=O)Nc3ccc(C(=O)N4CCN(C(=O)C5C[C@@H](O)C[N+]5(C)C)CC4)c(Cl)c3)n2C)c(F)c1F (stereo partly drawn) [Example K3, N-[3-chloro-4-[4-[(4R)-4-hydroxy-1,1-dimethyl-pyrrolidin-1-ium-2-carbonyl]piperazine-1-carbonyl]phenyl]-5-[4-[1-2,2-difluorocyclopropyl)methyl]-3,5-dimethyl-pyrazol-4-yl]-2,3-difluoro-phenyl]-1-methyl-imidazole-2-carboxamide; formate] as the compound, how does the IC90 read?
**A.** 300 nM

**Q.** How did the IC90 turn out when Cc1nn(CC(=O)Nc2ccc(F)nn2)cc1-c1ccc(-c2cnc(C(=O)Nc3ccc(C(=O)N4CCN(C(=O)C5CC[N+](C)(C)CC5)CC4)c(Cl)c3)n2C)cc1 [Example L1, N-[3-chloro-4-[4-(1,1-dimethylpiperidin-1-ium-4-carbonyl)piperazine-1-carbonyl]phenyl]-5-[4-[1-[2-[(6-fluoropyridazin-3-yl)amino]-2-oxo-ethyl]-3-methyl-pyrazol-4-yl]phenyl]-1-methyl-imidazole-2-carboxamide; formate] was run?
**A.** 206 nM

**Q.** Which IC90 does the source give for Cc1ccc(NC(=O)NCCn2cc(-c3ccc(-c4cnc(C(=O)Nc5ccc(C(=O)N6CCN(C(=O)C7CC[N+](C)(C)CC7)CC6)c(Cl)c5)n4C)c(F)c3F)c(C)n2)cn1 [Example M1, N-[3-chloro-4-[4-(1,1-dimethylpiperidin-1-ium-4-carbonyl)piperazine-1-carbonyl]phenyl]-5-[2,3-difluoro-4-[3-methyl-1-[2-[(6-methyl-3-pyridyl)carbamoylamino]ethyl]pyrazol-4-yl]phenyl]-1-methyl-imidazole-2-carboxamide formate] here?
**A.** 152 nM

**Q.** How did the IC90 turn out when Cc1c(-c2cnc(C(=O)Nc3ccc(C(=O)N4CCN(C(=O)CCC[N+](C)(CC(=O)O)CC5CNC5)CC4)c(Cl)c3)n2C)ccc(-c2cnn(CCOC(F)F)c2C)c1F (centres unmarked) [Example N1, azetidin-3-ylmethyl-(carboxymethyl)-[4-[4-[2-chloro-4-[[5-[4-[1-[2-(difluoromethoxy)ethyl]-5-methyl-pyrazol-4-yl]-3-fluoro-2-methyl-phenyl]-1-methyl-imidazole-2-carbonyl]amino]benzoyl]piperazin-1-yl]-4-oxo-butyl]-methyl-ammonium; formic acid; formate] was run?
**A.** 189 nM

**Q.** With COCCn1ncc(-c2ccc(-c3cnc(C(=O)Nc4ccc(C(=O)N5CCN(C(=O)[C@H]6CC[N@+](CC(=O)O)(CC7CNC7)CC6)CC5)c(Cl)c4)n3C)c(C)c2F)c1C [Example O4, cis 2-[1-(azetidin-3-ylmethyl)-4-[4-[2-chloro-4-[[5-[3-fluoro-4-[1-(2-methoxyethyl)-5-methyl-pyrazol-4-yl]-2-methyl-phenyl]-1-methyl-imidazole-2-carbonyl]amino]benzoyl]piperazine-1-carbonyl]piperidin-1-ium-1-yl]acetic acid formate] as the compound, how does the IC90 read?
**A.** 118 nM

same assay, conditions: Acinetobacter baumannii, ATCC17961, 16 h, read-out: ATCC 17961 IC90

**Q.** Cc1nn(CC(=O)Nc2ccc(F)nn2)cc1-c1ccc(-c2cnc(C(=O)Nc3ccc(C(=O)N4CCN(C(=O)C5CC[N+](C)(C)CC5)CC4)c(Cl)c3)n2C)cc1F [Example L2, N-[3-chloro-4-[4-(1,1-dimethylpiperidin-1-ium-4-carbonyl)piperazine-1-carbonyl]phenyl]-5-[3-fluoro-4-[1-[2-[(6-fluoropyridazin-3-yl)amino]-2-oxo-ethyl]-3-methyl-pyrazol-4-yl]phenyl]-1-methyl-imidazole-2-carboxamide; formate] was tested. Which IC90 did it give?
**A.** 168 nM

**Q.** How did the IC90 turn out when Cc1ccc(NC(=O)Cn2cc(-c3ccc(-c4cnc(C(=O)Nc5ccc(C(=O)N6CCN(C(=O)C7CC[N+](C)(C)CC7)CC6)c(Cl)c5)n4C)c(F)c3F)c(C)n2)nn1 [Example L3, N-[3-chloro-4-[4-(1,1-dimethylpiperidin-1-ium-4-carbonyl)piperazine-1-carbonyl]phenyl]-5-[2,3-difluoro-4-[3-methyl-1-[2-[(6-methylpyridazin-3-yl)amino]-2-oxo-ethyl]pyrazol-4-yl]phenyl]-1-methyl-imidazole-2-carboxamide; formate] was run?
**A.** 264 nM

**Q.** With COc1ccc(NC(=O)Cn2cc(-c3ccc(-c4cnc(C(=O)Nc5ccc(C(=O)N6CCN(C(=O)C7CC[N+](C)(C)CC7)CC6)c(Cl)c5)n4C)c(F)c3F)c(C)n2)nn1 [Example L4, N-[3-chloro-4-[4-(1,1-dimethylpiperidin-1-ium-4-carbonyl)piperazine-1-carbonyl]phenyl]-5-[2,3-difluoro-4-[1-[2-[(6-methoxypyridazin-3-yl)amino]-2-oxo-ethyl]-3-methyl-pyrazol-4-yl]phenyl]-1-methyl-imidazole-2-carboxamide; formate] as the compound, how does the IC90 read?
**A.** 106 nM

**Q.** With Cc1nn(CC(=O)Nc2ccc(N3CCOCC3)nn2)cc1-c1ccc(-c2cnc(C(=O)Nc3ccc(C(=O)N4CCN(C(=O)C5CC[N+](C)(C)CC5)CC4)c(Cl)c3)n2C)c(F)c1F [Example L5, N-[3-chloro-4-[4-(1,1-dimethylpiperidin-1-ium-4-carbonyl)piperazine-1-carbonyl]phenyl]-5-[2,3-difluoro-4-[3-methyl-1-[2-[(6-morpholinopyridazin-3-yl)amino]-2-oxo-ethyl]pyrazol-4-yl]phenyl]-1-methyl-imidazole-2-carboxamide; formate] as the compound, how does the IC90 read?
**A.** 374 nM

**Q.** For Cc1c(-c2cnc(C(=O)Nc3ccc(C(=O)N4CCN(C(=O)C5CC[N+](CC(=O)O)(CC6CNC6)CC5)CC4)c(Cl)c3)n2C)ccc(-c2cnn(CCOC(F)F)c2C)c1F (centres unmarked) [Example N2, 2-[1-(azetidin-3-ylmethyl)-4-[4-[2-chloro-4-[[5-[4-[1-[2-(difluoromethoxy)ethyl]-5-methyl-pyrazol-4-yl]-3-fluoro-2-methyl-phenyl]-1-methyl-imidazole-2-carbonyl]amino]benzoyl]piperazine-1-carbonyl]piperidin-1-ium-1-yl]acetic acid; formate], which IC90 is on record?
**A.** 183 nM

**Q.** Which IC90 does the source give for Cc1c(-c2cnc(C(=O)Nc3ccc(C(=O)N4CCN(C(=O)CCC[N+](C)(CCCN)CC(=O)O)CC4)c(Cl)c3)n2C)ccc(-c2cnn(CCOC(F)F)c2C)c1F (centres unmarked) [Example N3, 3-aminopropyl-(carboxymethyl)-[4-[4-[2-chloro-4-[[5-[4-[1-[2-(difluoromethoxy)ethyl]-5-methyl-pyrazol-4-yl]-3-fluoro-2-methyl-phenyl]-1-methyl-imidazole-2-carbonyl]amino]benzoyl]piperazin-1-yl]-4-oxo-butyl]-methyl-ammonium; formate] here?
**A.** 352 nM

**Q.** How did the IC90 turn out when COCCn1ncc(-c2ccc(-c3cnc(C(=O)Nc4ccc(C(=O)N5CCC(N(C)C(=O)C6CC[N+](CC(=O)O)(CC7CNC7)CC6)CC5)c(Cl)c4)n3C)c(F)c2F)c1C (centres unmarked) [Example O1, 2-[1-(azetidin-3-ylmethyl)-4-[[1-[2-chloro-4-[[5-[2,3-difluoro-4-[1-(2-methoxyethyl)-5-methyl-pyrazol-4-yl]phenyl]-1-methyl-imidazole-2-carbonyl]amino]benzoyl]-4-piperidyl]-methyl-carbamoyl]piperidin-1-ium-1-yl]acetic acid formate] was run?
**A.** 354 nM

**Q.** COCCn1ncc(-c2ccc(-c3cnc(C(=O)Nc4ccc(C(=O)N[C@H]5[C@@H]6CN(C(=O)C7CC[N+](CC(=O)O)(CC8CNC8)CC7)C[C@@H]65)c(Cl)c4)n3C)c(F)c2F)c1C (stereo partly drawn) [Example O2, 2-[1-(azetidin-3-ylmethyl)-4-[(1S,5R) 6-[[2-chloro-4-[[5-[2,3-difluoro-4-[1-(2-methoxyethyl)-5-methyl-pyrazol-4-yl]phenyl]-1-methyl-imidazole-2-carbonyl]amino]benzoyl]amino]-3-azabicyclo[3.1.0]hexane-3-carbonyl]piperidin-1-ium-1-yl]acetic acid formate] was tested. Which IC90 did it give?
**A.** 362 nM

**Q.** COCCn1ncc(-c2ccc(-c3cnc(C(=O)Nc4ccc(C(=O)N5CCN(C(=O)CCC[N+](CCCCN)(CCCCN)CC(=O)O)CC5C)c(Cl)c4)n3C)c(F)c2F)c1C (centres unmarked) [Example O3, bis(4-aminobutyl)-(carboxymethyl)-[4-[4-[2-chloro-4-[[5-[2,3-difluoro-4-[1-(2-methoxyethyl)-5-methyl-pyrazol-4-yl]phenyl]-1-methyl-imidazole-2-carbonyl]amino]benzoyl]-3-methyl-piperazino]-4-keto-butyl]ammonium formate] was tested. Which IC90 did it give?
**A.** 113 nM
